This experiment addresses triosephosphate isomerase from G. lamblia (GlTIM; dGlTIM) (Giardia duodenalis, UniProt P36186, C202A). In words: GDH-coupled TIM activity assay after […] h incubation at […] °C. Format: biochemical.

Take `CCN(CC)C(=S)SSC(=S)N(CC)CC` [disulfiram, 1,1′,1″,1‴-[disulfanediylbis(carbonothioylnitrilo)]tetraethane]: the IC50 (commonly the point on the concentration scale where inhibition reaches its midpoint) was 6.6 µM. That is a single-digit micromolar value.

(Values after publication PMC5727346 (International Journal for Parasitology: Drugs and Drug …, 2017).)
